According to patent publication US20080118589A1, “Pharmaceutical formulations of rhodiola crenulata and methods of use thereof” (priority 2005, published 2008):

Experiments:
MDA-MB-231 Cells [1] = experiment: Death time course with Tamoxifen, Rhodiola, or both; type: cell-based, human
Description: FIG. 8 is a graph showing a Death Time Course of MDA-MB-231 Cells treated with Tamoxifen, Rhodiola, or Tamoxifen plus Rhodiola.
FIG. 8 is similar to FIG. 7, but this experiment involved a time course of MDA-MB-231 Cells treated with Tamoxifen or Rhodiola alone, or Tamoxifen and Rhodiola together.

[2] = biological target: T1, telomerase activity in MDA-MB-231 breast cancer cells (Homo sapiens, UniProt O14746); experiment: Telomerase activity (qPCR); type: cell-based; details: Rhodiola crenulata 100 μg/mL, tamoxifen 10 μM
T1 construct: telomerase activity in human MDA-MB-231 breast cancer cells; endogenous in cells; host or cells: MDA-MB-231
T1 sequence (O14746 whole entry): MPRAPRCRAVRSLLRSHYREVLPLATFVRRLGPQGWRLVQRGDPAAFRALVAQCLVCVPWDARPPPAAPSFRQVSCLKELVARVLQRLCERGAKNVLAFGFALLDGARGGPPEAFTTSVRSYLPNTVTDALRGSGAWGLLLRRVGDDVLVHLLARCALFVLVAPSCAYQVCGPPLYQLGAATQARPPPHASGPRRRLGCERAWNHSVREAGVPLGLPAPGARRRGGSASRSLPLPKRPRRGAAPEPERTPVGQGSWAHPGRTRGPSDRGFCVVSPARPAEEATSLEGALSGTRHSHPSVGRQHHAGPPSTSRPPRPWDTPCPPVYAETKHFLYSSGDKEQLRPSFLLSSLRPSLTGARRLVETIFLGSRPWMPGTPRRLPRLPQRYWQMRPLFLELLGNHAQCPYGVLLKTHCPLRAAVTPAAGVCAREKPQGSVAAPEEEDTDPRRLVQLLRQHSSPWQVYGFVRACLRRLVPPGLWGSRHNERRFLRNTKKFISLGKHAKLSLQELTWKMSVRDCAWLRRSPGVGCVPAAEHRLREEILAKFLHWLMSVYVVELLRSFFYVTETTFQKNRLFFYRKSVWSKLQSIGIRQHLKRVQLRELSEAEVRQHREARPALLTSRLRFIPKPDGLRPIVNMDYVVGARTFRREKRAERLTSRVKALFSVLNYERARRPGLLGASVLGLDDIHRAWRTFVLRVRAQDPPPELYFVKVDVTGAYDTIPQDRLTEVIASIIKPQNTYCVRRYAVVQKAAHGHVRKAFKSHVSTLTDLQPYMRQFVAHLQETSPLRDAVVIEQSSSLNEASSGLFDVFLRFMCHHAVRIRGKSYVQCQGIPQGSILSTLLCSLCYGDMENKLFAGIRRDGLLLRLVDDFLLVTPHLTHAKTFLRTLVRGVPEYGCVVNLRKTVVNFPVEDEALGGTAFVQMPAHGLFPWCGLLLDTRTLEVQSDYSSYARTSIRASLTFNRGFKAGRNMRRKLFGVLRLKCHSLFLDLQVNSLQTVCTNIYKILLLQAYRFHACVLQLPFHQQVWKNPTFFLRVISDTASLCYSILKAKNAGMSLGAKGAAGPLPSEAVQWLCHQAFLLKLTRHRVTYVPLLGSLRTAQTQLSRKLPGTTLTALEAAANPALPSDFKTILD
Experimental: FIGS. 16 and 17 show the effect of Rhodiola crenulata (100 μg/mL) and tamoxifen (10 μM) on telomerase activity in human MDA-MB-231 breast cancer cells at 24 hr and 72 hr, respectively.
The breast cancer cell lines MDA-MB-231, V14, 76N tert (an immortalized epithelial breast cancer cell line), and 76N p53 239 (immortalized by presence of a dominant negative p53 gene) were treated as indicated above for 24 hours at 100 μg/mL Rhodiola crenulata.

MDA-MB-231 Cells [3] = experiment: MTS assay, growth arrest by retinoids +/-Rhodiola; type: cell-based, human; details: for chemosensitivity (MTS assay): retinoid with Rhodiola, data not shown
Experimental: Rhodiola crenulata extracts were administered to MDA-MB-231 cells in the presence or absence of either 1 μM or 10 μM all trans retinoic acid (ATRA), and cell viability/cytotoxicity was monitored using the MTS assay, as described above, and monitored for absorbance at 490 nm as indicative of chemosensitivity/resistance to the ATRA administered.

## CC/C(=C(\c1ccccc1)c1ccc(OCCN(C)C)cc1)c1ccccc1 [Tamoxifen, tamoxifen]
MDA-MB-231 Cells [1]; 24 hours
  percentage of cell death: increased the percentage of cell death
MDA-MB-231 Cells [1]; 48 hours
  percentage of cell death: increased the percentage of cell death
[2]; 24 hr
  telomerase activity: inhibited telomerase activity
[2]; 72 hr
  telomerase activity: telomerase activity is starting to return

## CC1=C(/C=C/C(C)=C\C=C\C(C)=C\C(=O)O)C(C)(C)CCC1 [9-cis retinoic acid]
MDA-MB-231 Cells [3]
  chemosensitivity (MTS assay): Comparable effects

## CC1=C(/C=C/C(C)=C/C=C/C(C)=C/C(=O)Nc2ccc(O)cc2)C(C)(C)CCC1 [HPR, N-(4-hydroxyphenyl) retinamide]
MDA-MB-231 Cells [3]
  chemosensitivity (MTS assay): Comparable effects

## CC1=C(/C=C/C(C)=C/C=C/C(C)=C/C(=O)O)C(C)(C)CCC1 [ATRA, all trans retinoic acid]
MDA-MB-231 Cells [3]; 1 μM or 10 μM ATRA, absence of Rhodiola crenulata
  chemosensitivity (MTS assay, absorbance at 490 nm): little difference in chemosensitivity
